Assay [1] has as its target S. Aureus MetRS (Staphylococcus aureus, UniProt Q5HII6). The assay can be described thus: MetRS inhibition (coupling of radiolabeled methionine to tRNAMet, TCA-precipitable counts). It is filed as biochemical. The note with it: purified MetRS enzyme. An excerpt:
The inhibition of MetRS activity may be monitored through use of in vitro bio-chemical assays through use of purified MetRS protein. Synthesis of a MetRS polypeptide can readily be accomplished through use of any of the various art-known techniques. For instance, a MetRS polypeptide can be synthesized chemically in vitro or recombinant DNA methods which are well known to those skilled in the art can be used to construct expression vectors containing MetRS coding sequences, and appropriate transcriptional/translational control signals. These methods include, for example, in vitro recombinant DNA techniques, synthetic techniques and in vivo recombination/genetic recombination. Alternatively, RNA capable of encoding target gene protein sequences can be chemically synthesized through use of synthesizers, for example.
The compounds of the present invention may also be evaluated for the ability to inhibit MetRS activity through use of known methods that measure the MetRS-dependent coupling of methionine to its cognate tRNA. In the assay, radiolabeled methionine, tRNA^Met and purified MetRS enzyme are incubated under appropriate conditions in the presence and absence of test compound and the amount of TCA-precipitable counts, which reflects the amount of methionine coupled to tRNA^Met, is determined.

The subject of assay [2] is S. aureus. The assay can be described thus: Antibacterial activity, minimal inhibitory concentration (MIC) against S. aureus. The following applies: Staphylococcus aureus. The format is cell-based. An excerpt: Antibacterial activity as measured by the minimal inhibitory concentrations (MIC) and minimal bactericidal concentrations of compounds are well known (see., e.g., National Committee for Clinical Laboratory Standards 2000 Performance standards for antimicrobial disk susceptibility tests: approved standard, 7th ed. M2-A7, vol. 20, no. 1, Committee for Clinical Laboratory Standards, Wayne, Pa.)
In vitro testing for antibacterial activity may be accomplished through use of a whole-cell bacterial growth inhibition assay. For example, an […] assay identifies a substance that inhibits bacterial growth. Microtiter plates are prepared with serial dilutions of the test compound, adding to the preparation a given amount of growth substrate, and providing a preparation of bacteria. Inhibition of bacterial growth is determined, for example, by observing changes in optical densities of the bacterial cultures. Inhibition of bacterial growth is determined, for example, by comparing (in the presence and absence of a test compound) the rate of growth or the absolute growth of bacterial cells. Inhibition includes a reduction of one of the above measurements by at least 20%.

Chain of S. Aureus MetRS (Q5HII6 whole entry): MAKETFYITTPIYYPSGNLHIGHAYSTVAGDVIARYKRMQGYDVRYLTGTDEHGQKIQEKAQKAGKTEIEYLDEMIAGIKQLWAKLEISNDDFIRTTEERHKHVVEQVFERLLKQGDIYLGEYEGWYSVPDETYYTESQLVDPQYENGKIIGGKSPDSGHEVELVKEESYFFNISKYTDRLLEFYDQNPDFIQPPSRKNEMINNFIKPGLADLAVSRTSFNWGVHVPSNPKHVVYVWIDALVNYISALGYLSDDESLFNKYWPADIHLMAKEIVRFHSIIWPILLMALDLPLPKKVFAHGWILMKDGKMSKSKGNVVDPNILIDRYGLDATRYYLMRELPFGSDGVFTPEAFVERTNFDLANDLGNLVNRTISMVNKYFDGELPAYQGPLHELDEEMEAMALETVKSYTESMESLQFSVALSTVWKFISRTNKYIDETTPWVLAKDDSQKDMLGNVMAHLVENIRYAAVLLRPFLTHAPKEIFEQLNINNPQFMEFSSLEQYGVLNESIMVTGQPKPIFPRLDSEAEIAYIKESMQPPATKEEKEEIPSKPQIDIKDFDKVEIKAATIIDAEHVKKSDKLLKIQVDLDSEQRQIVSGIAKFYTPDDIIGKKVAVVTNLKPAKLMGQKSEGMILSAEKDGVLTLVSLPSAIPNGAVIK

Regarding `COc1ccc(Oc2cc(N3CCOCC3)nc(NCc3nc4ccccc4[nH]3)n2)c(Cl)c1` [Compound 5.07], the half-maximal inhibitory concentration (IC50) in assay [1] was under 50 nM. This molecule also showed an MIC in assay [2] of at most 8 µg/mL. For the molecule `COc1ccc(Oc2cc(N(C)C)nc(NCc3nc4ccccc4[nH]3)n2)c(Cl)c1` [Compound 5.10], the IC50 in assay [1] was under 50 nM. Besides, the MIC in assay [2] is at most 8 µg/mL. For `COc1ccc(Oc2cc(N3CC(C)NC(C)C3)nc(NCc3nc4ccccc4[nH]3)n2)c(Cl)c1` (centres unmarked) [Compound 5.26], the concentration for half-maximal inhibition (IC50) in assay [1] was under 50 nM. In assay [2], this molecule registered a minimum inhibitory concentration (MIC) of at most 8 µg/mL. Regarding `CC1CN(c2cc(Oc3ccc(Cl)cc3Cl)nc(NCc3nc4ccccc4[nH]3)n2)CC(C)N1` (centres unmarked) [Compound 5.28], the IC50 in assay [1] was under 50 nM. In addition, in assay [2], the minimal inhibitory concentration (MIC) is at most 8 µg/mL. Turning to `COc1ccc(Oc2cc(N3CCC(O)C3)nc(NCc3nc4ccccc4[nH]3)n2)c(Cl)c1` (centres unmarked) [Compound 5.35], in assay [2], the minimal inhibitory concentration (MIC) is at most 8 µg/mL. As to `O=C1CN(c2cc(Oc3ccc(Cl)cc3Cl)nc(NCc3nc4ccccc4[nH]3)n2)CCN1` [Compound 5.37], the IC50 in assay [1] is under 50 nM. For the same molecule, in assay [2], the MIC is at most 8 µg/mL. As for `COc1ccc(Oc2cc(N3CCN(C(=O)c4ccco4)CC3)nc(NCc3nc4ccccc4[nH]3)n2)c(Cl)c1` [Compound 5.50], the half-inhibitory concentration (IC50) in assay [1] was under 50 nM. The minimum inhibitory concentration (MIC) in assay [2] is at most 8 µg/mL. With `COc1ccc(Oc2cc(N3CCCC3CO)nc(NCc3nc4ccccc4[nH]3)n2)c(Cl)c1` (centres unmarked) [Compound 5.51], the IC50 in assay [1] was under 50 nM. In assay [2], this molecule came in with an MIC of at most 8 µg/mL. On to `COc1ccc(Oc2cc(-n3cnc(C)c3)nc(NCc3nc4ccccc4[nH]3)n2)c(Cl)c1` [Compound 5.53], for which the minimum inhibitory concentration (MIC) in assay [2] was at most 8 µg/mL. In the case of `COc1ccc(Oc2cc(N3CCN(c4ncccn4)CC3)nc(NCc3nc4ccccc4[nH]3)n2)c(Cl)c1` [Compound 5.70], the IC50 in assay [1] is under 50 nM. Besides, the MIC in assay [2] is at most 8 µg/mL. In the same order, the values of `COc1ccc(Oc2cc(NNc3cc(=O)c4ccccc4[nH]3)nc(N(C)C)n2)c(Cl)c1` [Compound 6.06] are under 50 nM and at most 8 µg/mL. As for `COc1ccc(Oc2cc(NCc3nc4ccccc4[nH]3)nc(N3CCN(C(C)=O)CC3)n2)c(Cl)c1` [Compound 6.19], the half-maximal inhibitory concentration (IC50) in assay [1] is under 50 nM. Moreover, the minimum inhibitory concentration (MIC) in assay [2] is at most 8 µg/mL. For `O=C1CN(c2nc(NCc3nc4ccccc4[nH]3)cc(Oc3ccc(Cl)cc3Cl)n2)CCN1` [Compound 6.23], the IC50 in assay [1] is under 50 nM. This molecule had an MIC in assay [2] of at most 8 µg/mL. In the case of `COc1ccc(Oc2cc(NCc3nc4ccccc4[nH]3)nc(N3CCNC(=O)C3)n2)c(Cl)c1` [Compound 6.30], the IC50 in assay [1] was under 50 nM. The molecule further came in with an MIC in assay [2] of at most 8 µg/mL. For `COc1ccc(Oc2cc(NCc3nc4ccccc4[nH]3)nc(N3CCN(c4ncccn4)CC3)n2)c(Cl)c1` [Compound 6.45], in that order: under 50 nM and at most 8 µg/mL. Regarding `COc1ccc(Oc2cc(NCc3nc4ccccc4[nH]3)nc(N3CCN(C(=O)C4CC4)CC3)n2)c(Cl)c1` [Compound 6.48], in assay [1], the 50% inhibitory concentration (IC50) is under 50 nM. The minimal inhibitory concentration (MIC) in assay [2] was at most 8 µg/mL. In the same order, the values of `COc1ccc(Oc2cc(NCc3nc4ccccc4[nH]3)nc(N3CCN(C(=O)N(C)C)CC3)n2)c(Cl)c1` [Compound 6.49] are under 50 nM and at most 8 µg/mL.

Regarding `COc1cc(Cl)c(Oc2cc(NCc3nc4ccccc4[nH]3)nc(N3CCN(C(C)=O)CC3)n2)cc1OC` [Compound 6.55], the IC50 in assay [1] is under 50 nM. The MIC in assay [2] is at most 8 µg/mL. Consider `COc1cc(Cl)c(Oc2cc(NCc3nc4ccccc4[nH]3)nc(N3CCNC(=O)C3)n2)cc1OC` [Compound 6.56], for which the IC50 in assay [1] is under 50 nM. In assay [2], the MIC is at most 8 µg/mL. In the case of `COc1ccc(Oc2cc(NCc3nc4ccccc4[nH]3)nc(N3CCN(C(=O)C4CCCO4)CC3)n2)c(Cl)c1` (centres unmarked) [Compound 6.61], in assay [1], the IC50 was under 50 nM. In addition, the MIC in assay [2] was at most 8 µg/mL.

`CCN(C(C)=O)C1CCN(c2nc(NCc3nc4ccccc4[nH]3)cc(Oc3ccc(OC)cc3Cl)n2)C1` (centres unmarked) [Compound 6.62]: the IC50 in assay [1] is under 50 nM. The MIC in assay [2] was at most 8 µg/mL. On to `COc1cc(Cl)c(Oc2cc(NCc3nc4ccccc4[nH]3)nc(N3CCCN(C(C)=O)CC3)n2)cc1OC` [Compound 6.63], for which, in assay [1], the half-inhibitory concentration (IC50) is under 50 nM. The MIC in assay [2] is at most 8 µg/mL.

In the case of `COc1cc(Cl)c(Oc2cc(NCc3nc4ccccc4[nH]3)nc(N(C)C)n2)cc1OC` [Compound 6.83], in assay [1], the IC50 was under 50 nM. In assay [2], the MIC is at most 8 µg/mL.

Consider `COc1cc(Cl)c(Oc2cc(NCc3nc4ccccc4[nH]3)nc(N3CCOCC3)n2)cc1OC` [Compound 6.86], for which the IC50 in assay [1] was under 50 nM. The MIC in assay [2] was at most 8 µg/mL. For `COc1cc(Cl)c(Oc2cc(NCc3nc4ccccc4[nH]3)nc(N3CCN(C(=O)C4CC4)CC3)n2)cc1OC` [Compound 6.88], in that order: under 50 nM and at most 8 µg/mL. For `COc1cc(Cl)c(Oc2cc(NCc3nc4ccccc4[nH]3)nc(N3CCN(C(=O)N(C)C)CC3)n2)cc1OC` [Compound 6.89], the 50% inhibitory concentration (IC50) in assay [1] was under 50 nM. The same molecule gave a minimal inhibitory concentration (MIC) in assay [2] of at most 8 µg/mL. For `COc1cc(Cl)c(Oc2cc(NCc3nc4ccccc4[nH]3)nc(N3CCN(c4ncccn4)CC3)n2)cc1OC` [Compound 6.90], the IC50 in assay [1] was under 50 nM. The molecule also had a minimum inhibitory concentration (MIC) in assay [2] of at most 8 µg/mL. For the molecule `COc1cc(Cl)c(Oc2cc(NCc3nc4ccccc4[nH]3)nc(N3CCN(c4ccccn4)CC3)n2)cc1OC` [Compound 6.91], in assay [1], the IC50 is under 50 nM. The MIC in assay [2] was at most 8 µg/mL. With `COc1cc(Cl)c(Oc2cc(NCc3nc4ccccc4[nH]3)nc(N3CCN(c4cnccn4)CC3)n2)cc1OC` [Compound 6.93], the IC50 in assay [1] was under 50 nM. This molecule had an MIC in assay [2] of at most 8 µg/mL.

For the molecule `COc1cc(Cl)c(Oc2cc(NCc3nc4ccccc4[nH]3)nc(N3CCN(CCCN4CCOCC4)CC3)n2)cc1OC` [Compound 6.94], the IC50 in assay [1] was under 50 nM. For the same molecule, in assay [2], the minimum inhibitory concentration (MIC) was at most 8 µg/mL.

With `COc1cc(Cl)c(Oc2cc(NCc3nc4ccccc4[nH]3)nc(N3CCN(c4ccncc4)CC3)n2)cc1OC` [Compound 6.95], in assay [1], the IC50 is under 50 nM. For the same molecule, the MIC in assay [2] is at most 8 µg/mL. For `COc1ccnc(N2CCN(c3nc(NCc4nc5ccccc5[nH]4)cc(Oc4cc(OC)c(OC)cc4Cl)n3)CC2)n1` [Compound 6.96], in that order: under 50 nM and at most 8 µg/mL. `COc1cc(Cl)c(Oc2cc(NCc3nc4ccccc4[nH]3)nc(N3CCN(c4ncncn4)CC3)n2)cc1OC` [Compound 6.105]: in assay [1], the IC50 is under 50 nM. The minimum inhibitory concentration (MIC) in assay [2] was at most 8 µg/mL. Regarding `COc1cc(Cl)c(Oc2cc(NCc3nc4ccccc4[nH]3)nc(N3CCN(c4nccs4)CC3)n2)cc1OC` [Compound 6.107], in assay [1], the IC50 is under 50 nM. In assay [2], this molecule registered a minimum inhibitory concentration (MIC) of at most 8 µg/mL.

With `COc1cc(Cl)c(Oc2cc(NCc3nc4ccccc4[nH]3)nc(N3CCN(CCn4ccnc4)CC3)n2)cc1OC` [Compound 6.113], the half-maximal inhibitory concentration (IC50) in assay [1] was under 50 nM. This molecule registered an MIC in assay [2] of at most 8 µg/mL. As to `COc1cc(Cl)c(Oc2cc(NCc3nc4ccccc4[nH]3)nc(N3CCN(C(=O)CNc4nccs4)CC3)n2)cc1OC` [Compound 6.126], the IC50 in assay [1] is under 50 nM. In assay [2], this molecule had an MIC of at most 8 µg/mL. As to `COc1cc(Cl)c(Oc2cc(NCc3nc4ccccc4[nH]3)nc(N3CCN(C(=O)N4CCOCC4)CC3)n2)cc1OC` [Compound 6.134], the half-maximal inhibitory concentration (IC50) in assay [1] was under 50 nM. In addition, in assay [2], the minimal inhibitory concentration (MIC) is at most 8 µg/mL. In the case of `COc1cc(Cl)c(Oc2cc(NCc3nc4ccccc4[nH]3)nc(N3CCC(N4CCOCC4)CC3)n2)cc1OC` [Compound 6.138], the 50% inhibitory concentration (IC50) in assay [1] was under 50 nM. This molecule showed a minimum inhibitory concentration (MIC) in assay [2] of at most 8 µg/mL. In the same order, the values of `COc1cc(Cl)c(Oc2cc(NCc3nc4ccccc4[nH]3)nc(N3CCN(CCN4CCOCC4)CC3)n2)cc1OC` [Compound 6.140] are under 50 nM and at most 8 µg/mL.

With `COc1cc(Cl)c(Oc2cc(NCc3nc4ccccc4[nH]3)nc(N3CCN(CCN4CCCC4)CC3)n2)cc1OC` [Compound 6.142], in assay [1], the concentration for half-maximal inhibition (IC50) is under 50 nM. Also, the MIC in assay [2] is at most 8 µg/mL.

For the molecule `COc1cc(Cl)c(Oc2cc(NCc3nc4ccccc4[nH]3)nc(N3CCN(Cn4ccnc4C)CC3)n2)cc1OC` [Compound 6.143], the IC50 in assay [1] is under 50 nM. The MIC in assay [2] was at most 8 µg/mL.

`COc1cc(Cl)c(Oc2cc(NCc3nc4ccccc4[nH]3)nc(N3CCN(C(=O)N4CCCC4)CC3)n2)cc1OC` [Compound 6.144]: the half-maximal inhibitory concentration (IC50) in assay [1] was under 50 nM. This molecule also had a minimal inhibitory concentration (MIC) in assay [2] of at most 8 µg/mL. In the case of `COc1cc(Cl)c(Oc2cc(NCc3nc4ccccc4[nH]3)nc(N3CCC(CN4CCCC4=O)CC3)n2)cc1OC` [Compound 6.145], in assay [1], the IC50 was under 50 nM. The MIC in assay [2] was at most 8 µg/mL. Take `CC(=O)N1CCN(c2nc(NCc3nc4ccccc4[nH]3)cc(Oc3ccc4ncccc4c3Cl)n2)CC1` [Compound 6.150]: in assay [1], the concentration for half-maximal inhibition (IC50) was under 50 nM. Further, the MIC in assay [2] was at most 8 µg/mL.
